Measurements reported in ChEMBL document CHEMBL1201862, “PubChem BioAssay data set” (2004).
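Exposure lasted 48 hours, with cells grown in 96-well plates and compounds tested at five concentrations. GI50 is the concentration that inhibits growth by half.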 Activity calls are given as the source filed them. No stated cut-off is given here; in the data, active = GI50 up to about 1.1 µM and inactive = higher.

Key:
Experiment in all cases: NCI tumour cell line growth inhibition, 48 h
[1] = test system: NCI-H23
[2] = test system: NCI-H226
[3] = test system: T47D
[4] = test system: SK-MEL-28
[5] = test system: U-251
[6] = test system: OVCAR-8
[7] = test system: PC-3
[8] = test system: DU-145
[9] = test system: SF-295
[10] = test system: HCT-15
[11] = test system: OVCAR-3
[12] = test system: CCRF-CEM
[13] = test system: Hs-578T
[14] = test system: SK-OV-3
[15] = test system: HOP-62
[16] = test system: 786-0
[17] = test system: NCI/ADR-RES
[18] = test system: SNB-19

| SMILES | GI50 [1] | GI50 [2] | GI50 [3] | GI50 [4] | GI50 [5] | GI50 [6] | GI50 [7] | GI50 [8] | GI50 [9] | GI50 [10] [µM] | GI50 [11] | GI50 [12] | GI50 [13] | GI50 [14] | GI50 [15] | GI50 [16] | GI50 [17] | GI50 [18] |
| --- | --- | --- | --- | --- | --- | --- | --- | --- | --- | --- | --- | --- | --- | --- | --- | --- | --- | --- |
| COc1cc(O)c2c(c1)C(O)C(O)CC1OC1C(=O)/C=C/CC(C)OC2=O (centres undefined) | 2.1 µM (inactive) | 12.9 µM (inactive) | 5.05 µM (inactive) | 0.194 µM (active) | 8.18 µM (inactive) | 4.13 µM (inactive) | 11.6 µM (inactive) | 15.7 µM (inactive) | 15.6 µM (inactive) | 2.93 | 2.74 µM (inactive) | 1.26 µM (inactive) | 10 µM (inactive) | 19.7 µM (inactive) | 18 µM (inactive) | 3.52 µM (inactive) | 3.68 µM (inactive) | 19.8 µM (inactive) |
| O=C(NCCCl)Nc1ccccc1 | > 100 µM (inactive) | > 100 µM (inactive) | > 100 µM (inactive) | > 100 µM (inactive) | > 100 µM (inactive) | > 100 µM (inactive) | > 100 µM (inactive) | > 100 µM (inactive) | > 100 µM (inactive) | > 100 | > 100 µM (inactive) | > 100 µM (inactive) | > 100 µM (inactive) | > 100 µM (inactive) | > 100 µM (inactive) | > 100 µM (inactive) | > 100 µM (inactive) | > 100 µM (inactive) |
| C[C@H](CCC(=O)O)[C@H]1CC[C@H]2[C@@H]3[C@@H](O)C[C@@H]4C[C@H](O)CC[C@]4(C)[C@H]3CC[C@]12C | 65.2 µM (inactive) | > 100 µM (inactive) | > 100 µM (inactive) | 98.6 µM (inactive) | 58.6 µM (inactive) | 73.8 µM (inactive) | 45.4 µM (inactive) | > 100 µM (inactive) | 53.6 µM (inactive) | 67.3 | 60.8 µM (inactive) | 60.8 µM (inactive) | 59.8 µM (inactive) | > 100 µM (inactive) | > 100 µM (inactive) | > 100 µM (inactive) | 38.7 µM (inactive) | > 100 µM (inactive) |
